Results published in patent publication US12692269B2, “Therapeutic compounds” (Genentech, Inc., priority 2019, dated 2026).
Blank lines part the entries; values can stand above or below the molecule they belong to.

Tests used:
Assay type in all cases: binding
[1] = target: TEAD4 TAZ (amino acids 13-57) (Homo sapiens, UniProt Q15561); experiment: TEAD4-TAZ HTRF (TR-FRET) protein-protein interaction assay; conditions: for TEAD4 TAZ HTRF combined: Max % Inhibition: TEAD4, TAZ peptide; for EC50: TEAD4-TAZ HTRF, TR-FRET 665 nm/615 nm, read-out: TEAD4 TAZ HTRF combined: EC50
TEAD4 TAZ (amino acids 13-57), sequence (Q15561 217-434 limits assumed): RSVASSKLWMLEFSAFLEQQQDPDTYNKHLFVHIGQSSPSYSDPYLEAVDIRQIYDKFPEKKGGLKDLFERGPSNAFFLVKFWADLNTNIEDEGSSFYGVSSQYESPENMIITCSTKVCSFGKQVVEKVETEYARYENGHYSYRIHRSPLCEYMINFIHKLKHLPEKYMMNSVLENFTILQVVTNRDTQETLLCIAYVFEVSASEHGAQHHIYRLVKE
In short: (§1)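 His-tagged TEAD YAP-binding domain (aa 217-447) pre-bound to Eu anti-His antibody, then incubated 30 min with compound before adding biotinylated YAP (aa 50-100) or TAZ (aa 13-57) peptide with streptavidin-XL665. After 60 min at room temperature, TR-FRET 665/615 nm ratio read; IC50/EC50 from four-parameter fit.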

[2] = target: TEAD2 YAP50-100 (Homo sapiens, UniProt Q15562); experiment: TEAD2-YAP HTRF (TR-FRET) protein-protein interaction assay; conditions: TEAD2, YAP peptide 50-100, HTRF; for EC50: read-out: TEAD2 YAP50-100 HTRF combined: EC50
TEAD2 YAP50-100, sequence (Q15562 217-447): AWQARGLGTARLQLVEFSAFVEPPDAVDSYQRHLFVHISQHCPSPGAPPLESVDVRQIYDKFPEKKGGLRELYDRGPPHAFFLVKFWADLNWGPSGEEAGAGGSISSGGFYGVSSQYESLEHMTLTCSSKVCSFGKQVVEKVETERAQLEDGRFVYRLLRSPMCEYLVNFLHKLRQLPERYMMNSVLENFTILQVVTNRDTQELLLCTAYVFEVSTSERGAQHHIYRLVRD
In short: as §1

[3] = target: TEAD3 YAP50-100 (Homo sapiens, UniProt Q99594); experiment: TEAD3-YAP HTRF (TR-FRET) protein-protein interaction assay; conditions: TEAD3, YAP peptide 50-100, HTRF; for EC50: read-out: TEAD3 YAP50-100 HTRF combined: EC50
TEAD3 YAP50-100, sequence (Q99594 173-435 limits assumed): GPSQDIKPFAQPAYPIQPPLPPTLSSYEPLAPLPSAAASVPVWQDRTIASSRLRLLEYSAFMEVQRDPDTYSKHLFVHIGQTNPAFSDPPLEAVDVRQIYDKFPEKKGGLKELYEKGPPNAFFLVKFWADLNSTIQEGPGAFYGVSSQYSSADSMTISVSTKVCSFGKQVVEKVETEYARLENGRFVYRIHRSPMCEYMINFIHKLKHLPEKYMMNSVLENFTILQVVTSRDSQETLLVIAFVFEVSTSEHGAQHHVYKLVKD
In short: as §1

[4] = target: TEAD4 YAP50-100 (Homo sapiens, UniProt Q15561); experiment: TEAD4-YAP HTRF (TR-FRET) protein-protein interaction assay; conditions: TEAD4, YAP peptide 50-100, HTRF; for EC50: read-out: TEAD4 YAP50-100 HTRF combined: EC50
TEAD4 YAP50-100, sequence (Q15561 217-434 limits assumed): as the sequence (Q15561 217-434 limits assumed) above
In short: as §1

[5] = target: TEAD1 YAP50-100 (Homo sapiens, UniProt P28347); experiment: TEAD1-YAP HTRF (TR-FRET) protein-protein interaction assay; conditions: TEAD1, YAP peptide 50-100, HTRF; for EC50: read-out: TEAD1 YAP50-100 HTRF combined: EC50
TEAD1 YAP50-100, sequence (P28347 167-426 limits assumed): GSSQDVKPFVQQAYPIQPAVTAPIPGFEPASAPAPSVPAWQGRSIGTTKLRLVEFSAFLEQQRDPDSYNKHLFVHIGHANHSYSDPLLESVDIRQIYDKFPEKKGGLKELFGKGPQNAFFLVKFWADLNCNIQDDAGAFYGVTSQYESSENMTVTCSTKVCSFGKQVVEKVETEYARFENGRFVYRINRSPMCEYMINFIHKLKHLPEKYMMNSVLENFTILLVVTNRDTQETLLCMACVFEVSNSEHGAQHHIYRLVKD
In short: as §1

[6] = target: TEAD3 TAZ (amino acids 13-57) (Homo sapiens, UniProt Q99594); experiment: TEAD3-TAZ HTRF (TR-FRET) protein-protein interaction assay; conditions: for TEAD3 TAZ HTRF combined: Max % Inhibition: TEAD3, TAZ peptide; for EC50: TEAD3-TAZ HTRF, TR-FRET 665 nm/615 nm, read-out: TEAD3 TAZ HTRF combined: EC50
TEAD3 TAZ (amino acids 13-57), sequence (Q99594 173-435 limits assumed): as the sequence (Q99594 173-435 limits assumed) above
In short: as §1

[7] = target: TEAD2 TAZ (amino acids 13-57) (Homo sapiens, UniProt Q15562); experiment: TEAD2-TAZ HTRF (TR-FRET) protein-protein interaction assay; conditions: for TEAD2 TAZ HTRF combined: Max % Inhibition: TEAD2, TAZ peptide; for EC50: TEAD2-TAZ HTRF, TR-FRET 665 nm/615 nm, read-out: TEAD2 TAZ HTRF combined: EC50
TEAD2 TAZ (amino acids 13-57), sequence (Q15562 217-447): as the sequence (Q15562 217-447) above
In short: as §1

[8] = target: TEAD1 TAZ (amino acids 13-57) (Homo sapiens, UniProt P28347); experiment: TEAD1-TAZ HTRF (TR-FRET) protein-protein interaction assay; conditions: for TEAD1 TAZ HTRF combined: Max % Inhibition: TEAD1, TAZ peptide; for EC50: TEAD1-TAZ HTRF, TR-FRET 665 nm/615 nm, read-out: TEAD1 TAZ HTRF combined: EC50
TEAD1 TAZ (amino acids 13-57), sequence (P28347 167-426 limits assumed): as the sequence (P28347 167-426 limits assumed) above
In short: as §1

Compound: C[C@H]1[C@@H](CF)CN1C(=O)c1c(-c2cnccn2)nn2c(=O)cc(-c3ccc(CC4CCCC4)cc3)[nH]c12 (single isomer, unassigned) [Isomer B, Example 44, Cis-5-(4-(cyclopentylmethyl)phenyl)-3-(3-(fluoromethyl)-2-methylazetidine-1-carbonyl)-2-(pyrazin-2-yl)pyrazolo[1,5-a]pyrimidin-7(4H)-one]
TEAD4 TAZ HTRF combined: Max % Inhibition [1]: 52.0%
EC50 [1]: 20 nM
TEAD2 YAP50-100 HTRF combined: Max % Inhibition [2]: 70.0%
EC50 [2]: 10 nM
TEAD3 YAP50-100 HTRF combined: Max % Inhibition [3]: 61.5%
EC50 [3]: 50 nM
TEAD4 YAP50-100 HTRF combined: Max % Inhibition [4]: 50.5%
EC50 [4]: 20 nM
TEAD1 YAP50-100 HTRF combined: Max % Inhibition [5]: 69.0%
EC50 [5]: 30 nM
TEAD3 TAZ HTRF combined: Max % Inhibition [6]: 56.0%
EC50 [6]: 50 nM
TEAD2 TAZ HTRF combined: Max % Inhibition [7]: 67.5%
EC50 [7]: 10 nM
TEAD1 TAZ HTRF combined: Max % Inhibition [8]: 59.5%
EC50 [8]: 40 nM

Compound: CN(C)C(=O)c1nn2c(=O)cc(-c3ccc(C4CCCCC4)cc3)[nH]c2c1C(=O)N1CC(CF)C1 [Compound 1, 5-(4-Cyclohexylphenyl)-3-(3-(fluoromethyl)azetidine-1-carbonyl)-N,N-dimethyl-7-oxo-4,7-dihydropyrazolo[1,5-a]pyrimidine-2-carboxamide]
TEAD4 TAZ HTRF combined: Max % Inhibition [1]: 40.3%
EC50 [1]: 600 nM
TEAD2 YAP50-100 HTRF combined: Max % Inhibition [2]: 74.4%
EC50 [2]: 10 nM
TEAD3 YAP50-100 HTRF combined: Max % Inhibition [3]: 75.3%
EC50 [3]: 110 nM
TEAD4 YAP50-100 HTRF combined: Max % Inhibition [4]: 55.3%
EC50 [4]: 330 nM
TEAD1 YAP50-100 HTRF combined: Max % Inhibition [5]: 70.0%
EC50 [5]: 90 nM
TEAD3 TAZ HTRF combined: Max % Inhibition [6]: 63.0%
EC50 [6]: 170 nM
TEAD2 TAZ HTRF combined: Max % Inhibition [7]: 69.2%
EC50 [7]: 10 nM
TEAD1 TAZ HTRF combined: Max % Inhibition [8]: 61.2%
EC50 [8]: 90 nM

Compound: CN(C)C(=O)c1nn2c(=O)cc(-c3ccc(CC4CCCC4)cc3)[nH]c2c1C(=O)N1CC(CF)C1 [Compound 2, 5-(4-(Cyclopentylmethyl)phenyl)-3-(3-(fluoromethyl)azetidine-1-carbonyl)-N,N-dimethyl-7-oxo-4,7-dihydropyrazolo[1,5-a]pyrimidine-2-carboxamide]
TEAD4 TAZ HTRF combined: Max % Inhibition [1]: 42.0%
EC50 [1]: 330 nM
TEAD2 YAP50-100 HTRF combined: Max % Inhibition [2]: 68.0%
EC50 [2]: 10 nM
TEAD3 YAP50-100 HTRF combined: Max % Inhibition [3]: 60.5%
EC50 [3]: 120 nM
TEAD4 YAP50-100 HTRF combined: Max % Inhibition [4]: 51.5%
EC50 [4]: 470 nM
TEAD1 YAP50-100 HTRF combined: Max % Inhibition [5]: 62.0%
EC50 [5]: 60 nM
TEAD3 TAZ HTRF combined: Max % Inhibition [6]: 44.0%
EC50 [6]: 120 nM
TEAD2 TAZ HTRF combined: Max % Inhibition [7]: 66.5%
EC50 [7]: 10 nM
TEAD1 TAZ HTRF combined: Max % Inhibition [8]: 47.0%
EC50 [8]: 70 nM

Further lines, results first:

TEAD4 TAZ HTRF combined: Max % Inhibition [1]: 50.0%
EC50 [1]: 270 nM
TEAD2 YAP50-100 HTRF combined: Max % Inhibition [2]: 73.0%
EC50 [2]: 20 nM
TEAD3 YAP50-100 HTRF combined: Max % Inhibition [3]: 66.0%
EC50 [3]: 140 nM
TEAD4 YAP50-100 HTRF combined: Max % Inhibition [4]: 51.0%
EC50 [4]: 370 nM
TEAD1 YAP50-100 HTRF combined: Max % Inhibition [5]: 65.0%
EC50 [5]: 50 nM
TEAD3 TAZ HTRF combined: Max % Inhibition [6]: 65.5%
EC50 [6]: 150 nM
TEAD2 TAZ HTRF combined: Max % Inhibition [7]: 71.5%
EC50 [7]: 20 nM
TEAD1 TAZ HTRF combined: Max % Inhibition [8]: 60.0%
EC50 [8]: 50 nM
Compound: C[C@@H]1[C@H](CF)CN1C(=O)c1c(-c2ncccn2)nn2c(=O)cc(-c3ccc(CC4CCCC4)cc3)[nH]c12 (single isomer, unassigned) [Isomer B, Example 43]

TEAD4 TAZ HTRF combined: Max % Inhibition [1]: 29.0%
EC50 [1]: 170 nM
TEAD2 YAP50-100 HTRF combined: Max % Inhibition [2]: 56.5%
EC50 [2]: 10 nM
TEAD3 YAP50-100 HTRF combined: Max % Inhibition [3]: 66.5%
EC50 [3]: 230 nM
TEAD4 YAP50-100 HTRF combined: Max % Inhibition [4]: 39.5%
EC50 [4]: 210 nM
TEAD1 YAP50-100 HTRF combined: Max % Inhibition [5]: 55.0%
EC50 [5]: 60 nM
TEAD3 TAZ HTRF combined: Max % Inhibition [6]: 44.0%
EC50 [6]: 190 nM
TEAD2 TAZ HTRF combined: Max % Inhibition [7]: 55.0%
EC50 [7]: 10 nM
TEAD1 TAZ HTRF combined: Max % Inhibition [8]: 44.0%
EC50 [8]: 90 nM
Compound: CN(C)C(=O)c1nn2c(=O)cc(-c3cc(F)c(C4CCCCC4)c(F)c3)[nH]c2c1C(=O)N1CC(CF)C1 [Compound 3, 5-(4-Cyclohexyl-3,5-difluorophenyl)-3-(3-(fluoromethyl)azetidine-1-carbonyl)-N,N-dimethyl-7-oxo-4,7-dihydropyrazolo[1,5-a]pyrimidine-2-carboxamide]

TEAD4 TAZ HTRF combined: Max % Inhibition [1]: 36.0%
EC50 [1]: 150 nM
TEAD2 YAP50-100 HTRF combined: Max % Inhibition [2]: 64.0%
EC50 [2]: 10 nM
TEAD3 YAP50-100 HTRF combined: Max % Inhibition [3]: 69.0%
EC50 [3]: 70 nM
TEAD4 YAP50-100 HTRF combined: Max % Inhibition [4]: 48.5%
EC50 [4]: 200 nM
TEAD1 YAP50-100 HTRF combined: Max % Inhibition [5]: 69.0%
EC50 [5]: 40 nM
TEAD3 TAZ HTRF combined: Max % Inhibition [6]: 59.0%
EC50 [6]: 80 nM
TEAD2 TAZ HTRF combined: Max % Inhibition [7]: 64.5%
EC50 [7]: 10 nM
TEAD1 TAZ HTRF combined: Max % Inhibition [8]: 59.0%
EC50 [8]: 50 nM
Compound: CN(C)C(=O)c1nn2c(=O)cc(-c3ccc(C4CCCCC4)c(F)c3)[nH]c2c1C(=O)N1CC(CF)C1 [Compound 4, 5-(4-Cyclohexyl-3-fluorophenyl)-3-(3-(fluoromethyl)azetidine-1-carbonyl)-N,N-dimethyl-7-oxo-4,7-dihydropyrazolo[1,5-a]pyrimidine-2-carboxamide]

TEAD4 TAZ HTRF combined: Max % Inhibition [1]: 41.0%
EC50 [1]: 170 nM
TEAD2 YAP50-100 HTRF combined: Max % Inhibition [2]: 83.0%
EC50 [2]: 10 nM
TEAD3 YAP50-100 HTRF combined: Max % Inhibition [3]: 75.5%
EC50 [3]: 130 nM
TEAD4 YAP50-100 HTRF combined: Max % Inhibition [4]: 56.0%
EC50 [4]: 250 nM
TEAD1 YAP50-100 HTRF combined: Max % Inhibition [5]: 73.0%
EC50 [5]: 80 nM
TEAD3 TAZ HTRF combined: Max % Inhibition [6]: 66.5%
EC50 [6]: 140 nM
TEAD2 TAZ HTRF combined: Max % Inhibition [7]: 78.5%
EC50 [7]: 10 nM
TEAD1 TAZ HTRF combined: Max % Inhibition [8]: 62.0%
EC50 [8]: 70 nM
Compound: C[C@H]1[C@@H](CF)CN1C(=O)c1c(C(=O)N(C)C)nn2c(=O)cc(-c3ccc(C4CCCCC4)cc3)[nH]c12 [Compound 5, 5-(4-Cyclohexylphenyl)-3-((2S,3S)-3-(fluoromethyl)-2-methylazetidine-1-carbonyl)-N,N-dimethyl-7-oxo-4,7-dihydropyrazolo[1,5-a]pyrimidine-2-carboxamide]
